According to US20090068113A1, “AMPHIPHILIC SQUARAINE DYES, PROCESS FOR PREPARATION THEREOF AND USE THEREOF” (COUNCIL OF SCIENTIFIC AND INDUSTRIAL RESEARCH, priority 2005, published 2009):

Legend:
Type in all cases: physicochemical
[1] = Absorption, emission and fluorescence quantum yield in aqueous and alcoholic solvents
From the text: The absorption and emission maxima, and fluorescence quantum yields of these dyes in aqueous and alcoholic solvents are listed in Table 1. The long wavelength absorption and emission maxima and good fluorescence quantum yields in aqueous media make these dyes ideal candidates for application as fluorescence probes.

[2] = Photophysical properties and picosecond time-resolved fluorescence lifetimes in the presence of cationic micelle CTAB; conditions: for Abs λmax / Ems λmax / Φf: In the presence of CTAB
From the text: (§1) Study of the stability and photophysical properties of a photosensitizer under physiological conditions is important during its evaluation for various in vitro and in vivo applications. Particularly, the influence of membrane mimics like cetyltrimethylammonium bromide and carrier systems like β-cyclodextrin will provide information on the sensitizer behaviour under physiological conditions. Moreover, such studies are also useful to clarify points such as whether a particular dye forms aggregates or not and whether it generates cytotoxic agents or not in such environments. These media are unique in their properties, since β-CD forms inclusion complexes with the guest molecules, while others form micellar structures thereby provide in them both the hydrophobic and hydrophilic environment.
(§2) FIGS. 3, 4, and 5 show the emission spectra of dye of the general formula 1, wherein, R^1=—(CH2—CH2—O)n—CH3, n=4 and R^2=—CH3 in the presence of cationic micelle CTAB, anionic micelle SDS and neutral micelle Triton X-100, respectively. As the concentration of micelles increases, the fluorescence intensity of the dye increases showing an effective interaction between the micelles and the dye. To have a better understanding of the effect of micellar media we have analyzed the picosecond time-resolved fluorescence lifetimes of dyes of the general formula 1. […] Tables 2, 3 and 4
(§3) lists the absorption and emission maxima, fluorescence quantum yield and lifetimes of dyes of the general formula 1 wherein, R^1=—(CH2—CH2—O)n—CH3, n=4 and R^2=—CH3, general formula 2, wherein R^1, R^2=—(CH2—CH2—O)n—CH3, n=4 and general formula 3, wherein R^1=—(CH2)n—CO2X, n=3, X=H, and R^2=—CH3, in the absence and presence of cationic micelle CTAB, anionic micelle SDS and neutral micelle Triton X-100.

[3] = Photophysical properties and fluorescence lifetimes in the presence of anionic micelle SDS
From the text: as §1, §2, §3

[4] = Photophysical properties and fluorescence lifetimes in the presence of neutral micelle Triton X-100
From the text: as §1, §2, §3

[5] = Photophysical properties and fluorescence lifetimes in the presence of β-CD; conditions: for Abs λmax / Ems λmax / Φf: In the presence of β-CD
From the text: as §1
Table 5 summarises the absorption and emission maxima, fluorescence quantum yields and lifetimes of squaraine dyes of the general formula 1 in the presence of β-CD.

[6] = Summary of photophysical properties in the presence of membrane mimics and drug carriers; conditions: presence of membrane mimics and drug carriers versus aqueous media
From the text: The main advantages of these systems include: • 1. Squaraines dyes represented by formulae 1, 2 and 3 are novel and pure single substances. • 2. Their synthetic methodology is very economical. • 3. […] They can be used for photodynamic applications such as sterilization of fluids etc. • 7. The squaraine-based dyes can be used as near infrared fluorescent probes for protein labeling. • 8. The squaraine dyes of the general formula 1 can be used as near infrared fluorescent labels in immunoassays. • 9. They can be used for the detection of biologically important metal ions under physiological conditions. • 10. These novel dyes can be used as near-infrared fluorescence sensors in biological, biochemical and industrial applications.

[7] = Photophysical properties and fluorescence lifetimes in the presence of β-CD; conditions: in the absence of β-CD
[8] = In the presence of Triton X-100

SMILES | Φf (fluorescence quantum yield) ([1]; 10% v/v Ethanol/water) | λmax, nm abs ([1]; 10% v/v Ethanol/water) [nm] | λmax, nm ems ([1]; 10% v/v Ethanol/water) [nm] | Φf (fluorescence quantum yield) ([1]; Ethanol) | λmax, nm abs ([1]; Ethanol) [nm] | λmax, nm ems ([1]; Ethanol) [nm] | Φf (fluorescence quantum yield) ([1]; Water) | λmax, nm abs ([1]; Water) [nm] | λmax, nm ems ([1]; Water) [nm] | Abs λmax [2] [nm] | Ems λmax [2] [nm] | Φf [2] | Abs λmax ([3]; In the presence of SDS) [nm] | Abs λmax [4, 8] [nm] | Ems λmax [4, 8] [nm] | Φf [4, 8] | Abs λmax [5] [nm] | Ems λmax [5] [nm] | Φf [5] | increase of emission quantum yield [6] [fold] | further results
COCCOCCOCCOCCN(C)c1ccc(C2=C([O-])C(=C3C=CC(=[N+](C)CCOCCOCCOCCOC)C=C3)C2=O)cc1 [Formula 1] | 0.018 | 645 | 674 | 0.19 | 637 | 660 | 0.013 | 644 | 671 | 642 | 663 | 0.12 | 640 | 645 | 669 | 0.12 | 644 | 663 | 0.10 | ~10 | fluorescence intensity as the concentration of micelles increases ([2]; CTAB 0 to 129 mM, excitation 600 nm): increases; Ems λmax ([3]; In the presence of SDS): 663 nm; Lifetimes ([3]; In the presence of SDS): 590 ps; Φf ([3]; In the presence of SDS): 0.15; fluorescence intensity as the concentration of micelles increases ([3]; SDS 0 to 21 mM, excitation 600 nm): increases; fluorescence intensity as the concentration of micelles increases ([4]; Triton X-100 0 to 118 mM, excitation 600 nm): increases; form of fluorescence decay ([5]; in the presence of β-CD): Biexponential decay; form of fluorescence decay [7]: mono exponential decay
COCCOCCOCCOCCN(CCOCCOCCOCCOC)c1ccc(C2=C([O-])C(=C3C=CC(=[N+](CCOCCOCCOCCOC)CCOCCOCCOCCOC)C=C3)C2=O)cc1 [Formula 2] | 0.026 | 646 | 675 | 0.21 | 638 | 662 | 0.021 | 646 | 676 | 644 | 667 | 0.096 | 643 | 646 | 671 | 0.14 | 645 | 668 | 0.07 | ~10 | Ems λmax ([3]; In the presence of SDS): 668 nm; Φf ([3]; In the presence of SDS): 0.16; Relative contribution of lifetime component [4, 8]: (7%)
CN(CCCC(=O)O)c1ccc(C2=C([O-])C(=C3C=CC(=[N+](C)CCCC(=O)O)C=C3)C2=O)cc1 [Formula 3] | 0.015 | 647 | 673 | 0.18 | 636 | 662 | 0.007 | 645 | 673 | 644 | 667 | 0.14 | – | 649 | 672 | 0.12 | 649 | 666 | 0.19 | ~10 | –
